In patent US12077503B2, “Substituted cyclic amides and their use as herbicides” (FMC CORPORATION, priority 2015, dated 2024):

What was measured:
Assay type in all cases: in vivo
Kochia (Kochia scoparia) [1] = test: Test A preemergence; conditions: Bassia scoparia, pre-emergence, 240 h, 0 to 100 scale where 0 is no effect and 100 is complete control, read-out: Kochia plant response rating; for pest or weed control at 31 g/ha: 31 g ai/ha, Preemergence; for pest or weed control at 125 g/ha: 125 g ai/ha, preemergence, approx. 10 d
Procedure, shortened: (§1)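 In a loam soil and sand blend, planted seeds got a preemergence directed soil spray, and young plants at the one- to two-leaf stage, 2–10 cm high, got a postemergence application; ~10 d greenhouse hold; injury rated visually, 0 = none, 100 = complete control.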

[2] = system: barnyardgrass (Echinochloa crus-galli); test: Test A preemergence; conditions: Echinochloa crus-galli, pre-emergence, 240 h; for pest or weed control at 31 g/ha: 31 g ai/ha; for pest or weed control at 125 g/ha: 125 g ai/ha
Procedure, shortened: as §1

[3] = system: giant foxtail (Setaria faberii); test: Test A preemergence; conditions: Setaria faberi, pre-emergence, 240 h; for pest or weed control at 31 g/ha: 31 g ai/ha; for pest or weed control at 125 g/ha: 125 g ai/ha
Procedure, shortened: as §1

[4] = system: pigweed (Amaranthus retroflexus); test: Test A preemergence; conditions: Amaranthus retroflexus, pre-emergence, 240 h, 0 to 100 scale where 0 is no effect and 100 is complete control, read-out: Pigweed plant response rating; for pest or weed control at 31 g/ha: 31 g ai/ha, Preemergence; for pest or weed control at 125 g/ha: 125 g ai/ha, preemergence, approx. 10 d
[5] = system: ragweed (common ragweed, Ambrosia elatior); test: Test A preemergence; conditions: Ambrosia artemisiifolia, pre-emergence, 240 h, 0 to 100 scale where 0 is no effect and 100 is complete control, read-out: Ragweed plant response rating; for pest or weed control at 31 g/ha: 31 g ai/ha, Preemergence; for pest or weed control at 125 g/ha: 125 g ai/ha, preemergence, approx. 10 d
Procedure, shortened: as §1

[6] = system: ryegrass, Italian (Italian ryegrass, Lolium multiflorum); test: Test A preemergence; conditions: Lolium multiflorum, pre-emergence, 240 h, 0 to 100 scale where 0 is no effect and 100 is complete control, read-out: Ryegrass, Italian plant response rating; for pest or weed control at 31 g/ha: 31 g ai/ha, Preemergence; for pest or weed control at 125 g/ha: 125 g ai/ha, preemergence, approx. 10 d
Procedure, shortened: as §1

[7] = system: Galium (catchweed bedstraw, Galium aparine); test: Test A postemergence; conditions: Galium, post-emergence, 240 h; for pest or weed control at 125 g/ha: 125 g ai/ha, postemergence, visual injury on 0 to 100 scale (0 no effect, 100 complete control), approx. 10 d, read-out: Galium plant response rating; for pest or weed control at 31 g/ha: Postemergence, 31 g ai/ha, visual injury after approx. 10 d, 0 to 100 scale, 0 no effect, 100 complete control, read-out: Plant response rating, Galium
Procedure, shortened: as §1

Kochia (Kochia scoparia) [8] = test: Test A postemergence; conditions: Bassia scoparia, post-emergence, 240 h; for pest or weed control at 125 g/ha: 125 g ai/ha, postemergence, visual injury on 0 to 100 scale (0 no effect, 100 complete control), approx. 10 d, read-out: Kochia plant response rating; for pest or weed control at 31 g/ha: Postemergence, 31 g ai/ha, visual injury after approx. 10 d, 0 to 100 scale, 0 no effect, 100 complete control, read-out: Plant response rating, Kochia
Procedure, shortened: as §1

[9] = system: barnyardgrass (Echinochloa crus-galli); test: Test A postemergence; conditions: Echinochloa crus-galli, post-emergence, 240 h; for pest or weed control at 125 g/ha: 125 g ai/ha, postemergence, visual injury on 0 to 100 scale (0 no effect, 100 complete control), approx. 10 d, read-out: Barnyardgrass plant response rating; for pest or weed control at 31 g/ha: Postemergence, 31 g ai/ha, visual injury after approx. 10 d, 0 to 100 scale, 0 no effect, 100 complete control, read-out: Plant response rating, Barnyardgrass
Procedure, shortened: as §1

[10] = system: blackgrass (Alopecurus myosuroides); test: Test A postemergence; conditions: Alopecurus myosuroides, post-emergence, 240 h; for pest or weed control at 125 g/ha: 125 g ai/ha, postemergence, visual injury on 0 to 100 scale (0 no effect, 100 complete control), approx. 10 d, read-out: Blackgrass plant response rating; for pest or weed control at 31 g/ha: Postemergence, 31 g ai/ha, visual injury after approx. 10 d, 0 to 100 scale, 0 no effect, 100 complete control, read-out: Plant response rating, Blackgrass
Procedure, shortened: as §1

corn (Zea mays) = test: Test A postemergence; conditions: Zea mays, post-emergence, 240 h; for plant injury at 125 g/ha: 125 g ai/ha, postemergence, visual injury on 0 to 100 scale (0 no effect, 100 complete control), approx. 10 d, read-out: Corn plant response rating; for Corn plant response rating (crop injury, 0 = no effect, 100 = complete kill) at 31 g/ha: Postemergence, 31 g ai/ha, visual injury after approx. 10 d, 0 to 100 scale, 100 complete control
Procedure, shortened: as §1

[11] = system: giant foxtail (Setaria faberii); test: Test A postemergence; conditions: Setaria faberi, post-emergence, 240 h; for pest or weed control at 125 g/ha: 125 g ai/ha, postemergence, visual injury on 0 to 100 scale (0 no effect, 100 complete control), approx. 10 d, read-out: Foxtail, Giant plant response rating; for pest or weed control at 31 g/ha: Postemergence, 31 g ai/ha, visual injury after approx. 10 d, 0 to 100 scale, 0 no effect, 100 complete control, read-out: Plant response rating, Foxtail, Giant
Procedure, shortened: as §1

[12] = system: pigweed (Amaranthus retroflexus); test: Test A postemergence; conditions: Amaranthus retroflexus, post-emergence, 240 h; for pest or weed control at 125 g/ha: 125 g ai/ha, postemergence, visual injury on 0 to 100 scale (0 no effect, 100 complete control), approx. 10 d, read-out: Pigweed plant response rating; for pest or weed control at 31 g/ha: Postemergence, 31 g ai/ha, visual injury after approx. 10 d, 0 to 100 scale, 0 no effect, 100 complete control, read-out: Plant response rating, Pigweed
Procedure, shortened: as §1

[13] = system: ragweed (common ragweed, Ambrosia elatior); test: Test A postemergence; conditions: Ambrosia artemisiifolia, post-emergence, 240 h; for pest or weed control at 125 g/ha: 125 g ai/ha, postemergence, visual injury on 0 to 100 scale (0 no effect, 100 complete control), approx. 10 d, read-out: Ragweed plant response rating; for pest or weed control at 31 g/ha: Postemergence, 31 g ai/ha, visual injury after approx. 10 d, 0 to 100 scale, 0 no effect, 100 complete control, read-out: Plant response rating, Ragweed
Procedure, shortened: as §1

[14] = system: ryegrass, Italian (Italian ryegrass, Lolium multiflorum); test: Test A postemergence; conditions: Lolium multiflorum, post-emergence, 240 h; for pest or weed control at 125 g/ha: 125 g ai/ha, postemergence, visual injury on 0 to 100 scale (0 no effect, 100 complete control), approx. 10 d, read-out: Ryegrass, Italian plant response rating; for pest or weed control at 31 g/ha: Postemergence, 31 g ai/ha, visual injury after approx. 10 d, 0 to 100 scale, 0 no effect, 100 complete control, read-out: Plant response rating, Ryegrass, Italian
Procedure, shortened: as §1

[15] = system: wheat (Triticum aestivum); test: Test A postemergence; conditions: Triticum aestivum, post-emergence, 240 h; for plant injury at 125 g/ha: 125 g ai/ha, postemergence, visual injury on 0 to 100 scale (0 no effect, 100 complete control), approx. 10 d, read-out: Wheat plant response rating; for plant injury at 31 g/ha: Postemergence, 31 g ai/ha, visual injury after approx. 10 d, 0 to 100 scale, 0 no effect, 100 complete control, read-out: Plant response rating, Wheat
Procedure, shortened: as §1

[16] = system: barnyardgrass (Echinochloa crus-galli); test: Test B flooded paddy test; conditions: Echinochloa crus-galli, 250 g ai/ha, Flood; 0 to 100 scale where 0 is no effect and 100 is complete control; read-out: Barnyardgrass plant response rating
Procedure, shortened: (§2)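 Flooding to 3 cm over soil accompanied treatment, which consisted of adding compound to the standing water around 2-leaf plants; depth was then maintained. Visual assessment versus controls followed at 13 to 15 d (scale 0–100, 0 meaning no effect).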

[17] = system: ducksalad (Heteranthera limosa); test: Test B flooded paddy test; conditions: Heteranthera limosa, 250 g ai/ha, Flood; 0 to 100 scale where 0 is no effect and 100 is complete control; read-out: Ducksalad plant response rating
Procedure, shortened: as §2

rice (Oryra sativa) = test: Test B flooded paddy test; conditions: Oryza sativa, 250 g ai/ha, Flood; 0 to 100 scale where 0 is no effect and 100 is complete control; read-out: Rice plant response rating
Procedure, shortened: as §2

[18] = system: sedge, umbrella (small-flower umbrella sedge, Cyperus difformis); test: Test B flooded paddy test; conditions: Cyperus difformis, 250 g ai/ha, Flood; 0 to 100 scale where 0 is no effect and 100 is complete control; read-out: Sedge, Umbrella plant response rating
Procedure, shortened: as §2

[19] = Preemergence, 0 to 100 scale where 0 is no effect and 100 is complete control, read-out: Barnyardgrass plant response rating
[20] = Preemergence, 0 to 100 scale where 0 is no effect and 100 is complete control, read-out: Foxtail, Giant plant response rating

Structure (SMILES)	pest or weed control at 31 g/ha (Kochia (Kochia scoparia) [1]) [%]	pest or weed control at 125 g/ha (Kochia (Kochia scoparia) [1]) [%]	pest or weed control at 31 g/ha [2, 19] [%]	pest or weed control at 31 g/ha [3, 20] [%]	pest or weed control at 31 g/ha [4] [%]	pest or weed control at 125 g/ha [4] [%]	pest or weed control at 31 g/ha [5] [%]	pest or weed control at 125 g/ha [5] [%]	pest or weed control at 31 g/ha [6] [%]	pest or weed control at 125 g/ha [6] [%]	pest or weed control at 125 g/ha [7] [%]	pest or weed control at 31 g/ha [7] [%]	pest or weed control at 125 g/ha (Kochia (Kochia scoparia) [8]) [%]	pest or weed control at 31 g/ha (Kochia (Kochia scoparia) [8]) [%]	pest or weed control at 125 g/ha [9] [%]	pest or weed control at 31 g/ha [9] [%]	pest or weed control at 125 g/ha [10] [%]	pest or weed control at 31 g/ha [10] [%]	plant injury at 125 g/ha (corn (Zea mays)) [%]	Corn plant response rating (crop injury, 0 = no effect, 100 = complete kill) at 31 g/ha (corn (Zea mays)) [%]	further results
Cc1ccc([C@H]2CN(C)C(=O)[C@@H]2C(=O)Nc2cnccc2C(F)(F)F)cc1 [Compound 1067]	0	70	30	90	0	0	0	60	20	70	50	0	30	0	60	20	50	0	0	0	pest or weed control at 125 g/ha ([2]; Preemergence, visual injury rating after approximately 10 d, read-out: Barnyardgrass plant response rating (0 to 100 scale, 0 is no effect, 100 is complete control)): 100%; pest or weed control at 125 g/ha ([3]; Preemergence, visual injury rating after approximately 10 d, read-out: Foxtail, Giant plant response rating (0 to 100 scale, 0 is no effect, 100 is complete control)): 100%; pest or weed control at 125 g/ha [11]: 90%; pest or weed control at 31 g/ha [11]: 30%; pest or weed control at 125 g/ha [12]: 0%; pest or weed control at 31 g/ha [12]: 0%; pest or weed control at 125 g/ha [13]: 0%; pest or weed control at 31 g/ha [13]: 0%; pest or weed control at 125 g/ha [14]: 0%; pest or weed control at 31 g/ha [14]: 0%; plant injury at 125 g/ha [15]: 40%; plant injury at 31 g/ha [15]: 0%; pest or weed control at 250 g/ha [16]: 20%; pest or weed control at 250 g/ha [17]: 85%; pest or weed control at 250 g/ha (rice (Oryra sativa)): 0%; pest or weed control at 250 g/ha [18]: 0%
CN1C[C@H](c2ccc(C(F)(F)F)nc2)[C@@](C)(C(=O)Nc2cccc(F)c2F)C1=O [Compound 1109]	0	70	100	100	70	90	0	50	60	80	50	30	70	20	100	90	40	20	80	40	pest or weed control at 125 g/ha ([2]; preemergence, 0 to 100 scale where 0 is no effect and 100 is complete control, approx. 10 d, read-out: Barnyardgrass plant response rating): 100%; pest or weed control at 125 g/ha ([3]; preemergence, 0 to 100 scale where 0 is no effect and 100 is complete control, approx. 10 d, read-out: Foxtail, Giant plant response rating): 100%; pest or weed control at 125 g/ha [11]: 90%; pest or weed control at 31 g/ha [11]: 70%; pest or weed control at 125 g/ha [12]: 60%; pest or weed control at 31 g/ha [12]: 20%; pest or weed control at 125 g/ha [13]: 50%; pest or weed control at 31 g/ha [13]: 0%; pest or weed control at 125 g/ha [14]: 50%; pest or weed control at 31 g/ha [14]: 0%; plant injury at 125 g/ha [15]: 60%; plant injury at 31 g/ha [15]: 30%; pest or weed control at 250 g/ha [16]: 85%; pest or weed control at 250 g/ha [17]: 90%; pest or weed control at 250 g/ha (rice (Oryra sativa)): 50%; pest or weed control at 250 g/ha [18]: 0%
